Measurements as given in patent publication US20110028383A1, “Activated Forms Of Notch And Methods Based Thereon” (priority 1997, published 2011).
“Also recorded” adds a separate entry of the source.

What was measured:
[1] = test system: Drosophila Notch N^EC/N^TM heterodimer; test: Tethering of N^EC to N^TM in Notch expressing S2 cells (supernatant Western blot, sucrose density centrifugation); type: cell-based; conditions: for dissociation of N^EC and N^TM: calcium ion chelators
Procedure: Briefly, Drosophila S2 cells were induced to express Notch with the addition of 0.7 mM CuSO4 for 16 hours; Notch expression was under the control of the metallothionien promoter (Fehon et al., 1990, Cell 61:523-534). The cells were washed once with 20 mM Tris-HCl, 150 mM NaCl, 2 mM CaCl2 (TBS/Ca^2+) and were resuspended in TBS/Ca^2+ or in 20 mM Tris-HCl, 150 mM NaCl. 2 mM EDTA (TBS/EDTA) and incubated for one hour at room temperature under slow rocking. The cells were centrifuged and pelleted and the supernatants were collected for SDS-PAGE and Western blot analysis. The blot was probed with a monoclonal antibody directed to the extracellular domain of Notch, specifically against EGF-like repeats 5-7 of Drosophila Notch (clone C461.3B). This monoclonal was detected using goat anti-mouse horseradish peroxidase secondary antibody and chemiluminescent substrate.
The extracts were sedimented through a 5-20% sucrose gradient in the above-respective buffers (without the protease inhibitors) in a Beckman SW50.1 rotor at 34,000 rpm for 16 hours at 4° C. Fractions were collected and precipitated with 10% trichloroacetic acid. The protein pellets were resuspended in SDS-PAGE sample buffer and analyzed by SDS-PAGE and Western blotting. Blots were probed with a mixture of monoclonal antibodies C461.3B and 9C6 (directed against the intracellular domain of Notch) and detected as described above.

human Notch2 = test: Pulse chase labeling of Notch2 processing in SJ-NB5 cells; type: cell-based; conditions: for breakdown (cleavage, processing) of full-length Notch: [35S] pulse 20 min and chase at 37° C., immunoprecipitated by PGHN, Brefeldin A 10 μg/ml; for appearance of N^EC: pulse labeling
Procedure: SJ-NB5 cells were grown on 60 mm petri dishes until ˜80% confluent, washed once with PBS, and then incubated in methionine and cysteine free DMEM medium for 1 hr. 100 μCi^35S-translabled Met-Cys (ICN) was added to each plate, pulsed at 37° C. for 20 minutes, and chased for varying times and temperatures. The chase began by adding 2× volume complete medium plus 100 μg/ml cold methionine and cysteine to the plates. For Brefeldin A samples, Brefeldin A was maintained at a final concentration of 10 μg/ml in starvation medium as well as in both pulse and chase. Cells were washed with cold PBS and lysed in lysis buffer (Zagouras et al., 1995, Proc. Natl. Acad. Sci. USA 92:6414-6418) containing 1 mM Pefabloc SC, 0.7 μg/mlpepstatin A, and 0.5 μg/ml leupeptin. Cell lysates were centrifuged at 14,000 rpm for 5 minutes. The supernatants were transferred to fresh tubes and pre-cleared by incubating with 5 μl normal rabbit serum and 50 μl 10% protein A-sephrose CL-4B (Pharmacia LKB) for 1 hr at 4° C. The beads were pelleted by centrifugation and the supernatants were divided into two equal aliquots. One aliquot was immunoprecipitated by incubating with rabbit polyclonal anti-human Notch2 antibody PGHN and 50 μl protein A-sephrose CL-4B for 2-3 hrs or overnight at 4° C. The other aliquot was immunoprecipitated by normal rabbit serum as control. The beads were washed three times in RIPA buffer B (150 mM NaCl, 1% NP40, 0.5% DOC, 0.1% SDS, 50 mM Tris, pH 7.5); washed once in 50 mM Tris-Cl, 150 mM NaCl, pH 7.5; resuspended in 50 μl SDS-sample buffer; boiled; and subjected to a 3-15% gradient SDS-PAGE. The gel was fixed in 25% iso-propanol, 10% acetic acid for 30 minutes, soaked in Amplify™ (Amersham) for 15-30 minutes, dried, and exposed to X-ray film at −70° C.
In an attempt to determine the cellular compartment where Notch is cleaved, pulse labeling analyses were carried out in the presence of drugs that are known to interfere with cellular trafficking.

Notch/Delta = test: Co-immunoprecipitation of N^TM with Delta antibodies after Notch/Delta cell aggregation; type: cell-based, Drosophila; conditions: aggregation disrupted by depleting calcium from the medium; data not shown
Procedure: Human neuroblastoma (SJ-NB5) cells were grown at 37° C. in an atmosphere of 5% CO2/95% air, in RPMI (Gibco-BRL, Grand Island, N.Y.) supplemented with 10% fetal bovine serum (Gibco BRL, Grand Island, N.Y.), 2 mM L-Glutamine (ICN Biomedicals, Inc., Costa Mesa, Calif.), 100 μg/ml penicillin, and 100 μg/ml streptomycin (ICN Biomedicals, Inc., Costa Mesa, Calif.). Cells were dissociated using phosphate buffered saline (PBS) with 0.25% trypsin and 0.03% EDTA (J. T. Baker, Inc., Phillipsburg, N.J.), and subcultured at ratios of 1:3 to 1:10. HaCat Cells (cultured human keratinocytes) were a gift from Dr. Michael Reiss (Yale University). Aggregation experiments and the maintenance of Drosophila S2 and KC cells were as described in Fehon et al., 1990, Cell 61:523-534.
The biological significance of the heterodimeric Notch form would be questionable if it could not bind ligands. […] If the heterodimeric form interacts with Delta after aggregation then the 110 kd N^TM fragment should co-immunoprecipitate using Delta antibodies.

## O[C@H](CS)[C@H](O)CS (racemic) [dithiothreitol (DTT), dithiothreitol]
[1]
  sensitivity of the N^EC/N^TM interaction to reducing agents: sensitive

## C[C@H]1CCC/C=C/[C@@H]2C[C@H](O)C[C@H]2[C@H](O)/C=C/C(=O)O1 [Brefeldin A]
Human Notch2
  breakdown (cleavage, processing) of full-length Notch: effectively blocks the breakdown of full-length Notch; also recorded: blocked; also recorded: inhibit the cleavage of Notch
  appearance of N^EC: is inhibited

## O=C(O)CN(CCN(CC(=O)O)CC(=O)O)CC(=O)O [EDTA]
[1]; 2 mM EDTA, Tris-HCl saline buffer, one hour at room temperature, Western blot
  N^EC in the supernatant of Notch expressing S2 cells: N^EC is present in the supernatant
[1]; S2 cell extracts, TBS/EDTA with 1% Triton X-100, 5-20% sucrose gradient
  sedimentation of N^EC and N^TM in sucrose density centrifugation: sediment separately
[1]
  dissociation of N^EC and N^TM: dissociate

## O=C(O)CN(CCOCCOCCN(CC(=O)O)CC(=O)O)CC(=O)O [EGTA]
[1]
  dissociation of N^EC and N^TM: dissociate
Notch/Delta
  precipitation of N^TM by Delta antibodies: fail to efficiently precipitate N^TM

## CCN(CC)CCCC(C)Nc1ccnc2cc(Cl)ccc12 (stereo not shown) [chloraquinone]
Human Notch2
  breakdown (cleavage, processing) of full-length Notch: do not affect processing
  appearance of N^EC: not inhibited

## CC[C@@]1([C@@H]2O[C@@H]([C@H]3O[C@@](O)(CO)[C@H](C)C[C@@H]3C)C[C@@H]2C)CC[C@H]([C@]2(C)CC[C@]3(C[C@H](O)[C@@H](C)[C@@H]([C@@H](C)[C@@H](OC)[C@H](C)C(=O)O)O3)O2)O1 [monensin]
Human Notch2
  breakdown (cleavage, processing) of full-length Notch: do not affect processing
  appearance of N^EC: not inhibited

## OCCS [β-mercaptoethanol]
[1]
  sensitivity of the N^EC/N^TM interaction to reducing agents: sensitive
